Blank lines part the entries; values can stand above or below the compound they belong to. The source made the active and inactive calls.
Tests used:
HEK293 [1] = assay: HEK cell cytotoxicity by LDH release, dose response, cytotoxicity control for IDE activator project, fluorescence, HEK cells (AID 588440); type: functional, cell-based; conditions: Homo sapiens;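 also: cytotoxicity by LDH release measuring loss of membrane integrity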
Insulin-degrading enzyme [2] = molecular target: T1, Insulin-degrading enzyme (Homo sapiens, UniProt P14735); assay: activators of recombinant IDE enzyme, dose response, counter-screen for IDE activator project, biochemical, fluorescence polarization (AID 588681)
T1 sequence (P14735 whole entry): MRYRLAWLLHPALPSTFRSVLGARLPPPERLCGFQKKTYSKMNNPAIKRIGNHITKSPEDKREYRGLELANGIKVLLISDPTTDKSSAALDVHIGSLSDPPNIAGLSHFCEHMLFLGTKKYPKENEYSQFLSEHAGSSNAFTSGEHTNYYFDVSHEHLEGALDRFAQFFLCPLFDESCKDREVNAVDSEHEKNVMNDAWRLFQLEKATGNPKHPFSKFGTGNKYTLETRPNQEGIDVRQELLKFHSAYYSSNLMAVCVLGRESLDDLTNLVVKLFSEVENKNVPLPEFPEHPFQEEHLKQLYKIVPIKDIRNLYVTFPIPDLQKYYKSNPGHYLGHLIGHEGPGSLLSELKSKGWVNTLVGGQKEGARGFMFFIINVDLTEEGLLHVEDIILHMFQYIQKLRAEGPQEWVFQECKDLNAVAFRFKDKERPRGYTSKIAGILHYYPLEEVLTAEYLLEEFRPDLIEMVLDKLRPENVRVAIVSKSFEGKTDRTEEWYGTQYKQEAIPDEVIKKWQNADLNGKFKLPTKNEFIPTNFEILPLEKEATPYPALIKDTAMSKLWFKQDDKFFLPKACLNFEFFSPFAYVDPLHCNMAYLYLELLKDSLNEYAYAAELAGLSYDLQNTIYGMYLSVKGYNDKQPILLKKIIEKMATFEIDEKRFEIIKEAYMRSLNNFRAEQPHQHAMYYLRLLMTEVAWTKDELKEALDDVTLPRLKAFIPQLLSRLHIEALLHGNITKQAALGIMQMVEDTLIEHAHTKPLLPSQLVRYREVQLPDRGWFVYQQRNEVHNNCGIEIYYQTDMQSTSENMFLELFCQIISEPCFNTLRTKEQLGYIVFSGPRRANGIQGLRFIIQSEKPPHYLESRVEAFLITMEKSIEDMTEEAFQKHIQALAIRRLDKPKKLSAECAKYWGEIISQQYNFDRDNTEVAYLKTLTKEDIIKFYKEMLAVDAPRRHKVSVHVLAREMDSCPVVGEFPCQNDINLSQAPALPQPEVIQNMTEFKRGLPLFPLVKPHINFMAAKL

Insulin-degrading enzyme [3] = molecular target: T1, Insulin-degrading enzyme; assay: activators of endogenous IDE in HEK cells, dose response, cell-based, fluorescence polarization (AID 588439); type: functional
HEK293 [4] = assay: optical interference in Abeta FP readout, dose response, artefact control for IDE activator project, biochemical, fluorescence polarization (AID 588442); type: functional, cell-based; conditions: Homo sapiens
[5] = molecular target: FAD-linked sulfhydryl oxidase ALR (Homo sapiens, UniProt P55789); assay: inhibitors of human ALR sulfhydryl oxidase, dose response, biochemical, H2O2 detection, luminescence, cherry-pick (AID 493248)
[6] = molecular target: Dual specificity protein kinase CLK1 (Homo sapiens, UniProt P49759); assay: CLK1 kinase inhibitors, off-target check, dose response, selectivity assay for Dyrk1A inhibitor project, biochemical, cherry-picked samples (AID 588811)
[7] = molecular target: Dual specificity tyrosine-phosphorylation-regulated kinase 1A (Rattus norvegicus, UniProt Q63470); type: biochemical, Homo sapiens
Protein skinhead-1 = molecular target: T2, Protein skinhead-1 (Caenorhabditis elegans, UniProt P34707); type: functional
T2 sequence (P34707 whole entry): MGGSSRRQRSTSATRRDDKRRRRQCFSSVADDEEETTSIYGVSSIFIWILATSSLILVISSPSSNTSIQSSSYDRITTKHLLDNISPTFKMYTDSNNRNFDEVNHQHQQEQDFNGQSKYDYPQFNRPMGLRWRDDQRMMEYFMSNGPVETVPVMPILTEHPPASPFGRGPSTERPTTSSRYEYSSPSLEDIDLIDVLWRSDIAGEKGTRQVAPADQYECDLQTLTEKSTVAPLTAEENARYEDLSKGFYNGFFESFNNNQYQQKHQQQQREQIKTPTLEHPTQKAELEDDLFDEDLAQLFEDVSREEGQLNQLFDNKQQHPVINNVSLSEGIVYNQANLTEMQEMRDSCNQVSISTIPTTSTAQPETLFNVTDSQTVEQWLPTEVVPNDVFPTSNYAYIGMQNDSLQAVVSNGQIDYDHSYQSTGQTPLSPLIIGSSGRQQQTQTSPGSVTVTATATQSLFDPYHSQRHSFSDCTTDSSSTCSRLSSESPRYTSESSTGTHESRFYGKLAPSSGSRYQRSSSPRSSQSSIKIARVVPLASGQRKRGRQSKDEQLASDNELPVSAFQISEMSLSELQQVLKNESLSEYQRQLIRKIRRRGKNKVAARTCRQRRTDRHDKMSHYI

HeLa = assay: HeLa cell cytotoxicity, dose response, cytotoxicity control for MITF activator project, CellTiter-Glo luminescence, cherry-pick samples (AID 540259); type: functional, cell-based; conditions: Homo sapiens
Phospholipase D1 = molecular target: T3, Phospholipase D1 (Homo sapiens, UniProt Q13393); assay: PLD1 inhibitor potency in cells, dose response (AID 602151); type: functional;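 also: cellular PLD1 assay in Calu-1 cells stimulated with PMA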
T3 sequence (Q13393 whole entry): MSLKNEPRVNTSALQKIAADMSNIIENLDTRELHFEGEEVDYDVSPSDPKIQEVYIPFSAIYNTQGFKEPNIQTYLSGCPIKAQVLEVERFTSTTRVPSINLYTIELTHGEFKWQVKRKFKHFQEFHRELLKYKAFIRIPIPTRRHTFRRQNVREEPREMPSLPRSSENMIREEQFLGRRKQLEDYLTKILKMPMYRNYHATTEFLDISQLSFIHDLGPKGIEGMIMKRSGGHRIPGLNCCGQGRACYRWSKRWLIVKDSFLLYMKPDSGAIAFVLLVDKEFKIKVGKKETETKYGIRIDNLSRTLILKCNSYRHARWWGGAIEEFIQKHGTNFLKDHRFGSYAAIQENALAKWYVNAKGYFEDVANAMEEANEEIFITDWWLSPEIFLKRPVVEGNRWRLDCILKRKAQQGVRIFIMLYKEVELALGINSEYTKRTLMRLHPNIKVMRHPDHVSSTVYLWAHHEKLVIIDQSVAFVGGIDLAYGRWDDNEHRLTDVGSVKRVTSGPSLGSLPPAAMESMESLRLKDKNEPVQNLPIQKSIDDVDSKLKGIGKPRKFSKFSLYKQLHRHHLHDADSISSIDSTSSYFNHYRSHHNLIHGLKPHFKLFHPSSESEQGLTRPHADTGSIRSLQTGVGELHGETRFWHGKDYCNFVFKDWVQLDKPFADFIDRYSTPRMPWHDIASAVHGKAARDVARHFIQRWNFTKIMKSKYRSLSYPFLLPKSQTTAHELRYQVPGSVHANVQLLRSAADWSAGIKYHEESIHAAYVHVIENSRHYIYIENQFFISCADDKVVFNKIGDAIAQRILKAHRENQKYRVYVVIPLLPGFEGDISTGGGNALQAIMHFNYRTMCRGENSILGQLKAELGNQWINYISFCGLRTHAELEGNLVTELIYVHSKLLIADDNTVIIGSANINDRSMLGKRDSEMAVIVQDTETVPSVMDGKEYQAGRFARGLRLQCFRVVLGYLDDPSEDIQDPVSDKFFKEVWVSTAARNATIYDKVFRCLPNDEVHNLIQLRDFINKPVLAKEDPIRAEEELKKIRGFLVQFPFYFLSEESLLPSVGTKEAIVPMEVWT

Phospholipase D2 = Phospholipase D2 (Homo sapiens, UniProt O14939); assay: PLD2 inhibitor potency in cells, dose response (AID 602147); type: functional;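 also: cellular assay in HEK293 cells overexpressing GFP-tagged PLD2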
Phospholipase D2, sequence (O14939 whole entry): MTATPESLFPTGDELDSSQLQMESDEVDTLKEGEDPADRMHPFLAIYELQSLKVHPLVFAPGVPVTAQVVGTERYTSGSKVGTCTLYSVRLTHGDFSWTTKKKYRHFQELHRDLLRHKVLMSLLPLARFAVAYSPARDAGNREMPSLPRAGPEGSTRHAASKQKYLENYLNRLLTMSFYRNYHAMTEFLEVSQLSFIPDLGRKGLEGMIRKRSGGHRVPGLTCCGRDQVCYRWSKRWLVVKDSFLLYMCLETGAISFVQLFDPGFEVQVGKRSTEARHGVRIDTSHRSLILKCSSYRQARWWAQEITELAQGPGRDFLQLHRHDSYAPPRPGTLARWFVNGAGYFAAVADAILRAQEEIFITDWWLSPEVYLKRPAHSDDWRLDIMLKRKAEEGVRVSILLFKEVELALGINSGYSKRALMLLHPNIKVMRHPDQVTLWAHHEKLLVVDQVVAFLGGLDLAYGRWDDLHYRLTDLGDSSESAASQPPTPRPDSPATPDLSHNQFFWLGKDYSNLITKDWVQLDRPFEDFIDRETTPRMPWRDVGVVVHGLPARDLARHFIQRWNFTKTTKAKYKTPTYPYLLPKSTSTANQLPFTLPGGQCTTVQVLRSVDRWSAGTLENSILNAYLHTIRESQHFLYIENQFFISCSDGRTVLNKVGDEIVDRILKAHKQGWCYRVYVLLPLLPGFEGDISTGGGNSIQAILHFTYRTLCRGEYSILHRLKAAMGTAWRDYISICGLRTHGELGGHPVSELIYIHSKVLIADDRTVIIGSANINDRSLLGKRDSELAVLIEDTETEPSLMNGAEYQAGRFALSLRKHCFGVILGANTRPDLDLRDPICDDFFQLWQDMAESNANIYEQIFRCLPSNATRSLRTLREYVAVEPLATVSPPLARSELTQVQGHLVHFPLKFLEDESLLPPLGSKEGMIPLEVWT

Dual specificity protein kinase CLK1, sequence (P49759 whole entry): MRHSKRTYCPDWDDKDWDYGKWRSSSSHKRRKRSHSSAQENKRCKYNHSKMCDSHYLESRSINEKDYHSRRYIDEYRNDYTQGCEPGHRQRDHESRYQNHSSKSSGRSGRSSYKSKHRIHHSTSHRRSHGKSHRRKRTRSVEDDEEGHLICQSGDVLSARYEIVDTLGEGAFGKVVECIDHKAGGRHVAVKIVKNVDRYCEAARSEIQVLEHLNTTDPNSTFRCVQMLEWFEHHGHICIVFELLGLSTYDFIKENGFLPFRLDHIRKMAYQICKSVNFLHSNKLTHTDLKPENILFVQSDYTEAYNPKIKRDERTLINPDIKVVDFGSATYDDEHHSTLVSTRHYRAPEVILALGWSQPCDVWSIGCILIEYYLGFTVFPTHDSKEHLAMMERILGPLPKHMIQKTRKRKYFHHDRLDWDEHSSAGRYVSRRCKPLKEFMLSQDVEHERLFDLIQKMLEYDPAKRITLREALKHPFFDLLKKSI
FAD-linked sulfhydryl oxidase ALR, sequence (P55789 whole entry): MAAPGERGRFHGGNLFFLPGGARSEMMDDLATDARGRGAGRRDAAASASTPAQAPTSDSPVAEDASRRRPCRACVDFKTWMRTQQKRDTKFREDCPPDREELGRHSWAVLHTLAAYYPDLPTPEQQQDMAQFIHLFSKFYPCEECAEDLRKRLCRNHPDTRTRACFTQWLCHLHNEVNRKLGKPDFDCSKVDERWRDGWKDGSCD

Structure (SMILES): CN(C)CCCN(C(=O)CCSc1ccccc1)c1nc2cc3c(cc2s1)OCO3
IC50 (HEK293 [1]): 33.9 µM (inactive)
EC50 (Insulin-degrading enzyme [2]): > 54.7 µM (inactive)
EC50 (Insulin-degrading enzyme [3]): > 54.7 µM (inactive)
EC50 (HEK293 [4]): > 54.7 µM (inactive)

AC50 [5]: 1.11 µM (active)
AC50 [6]: 7.74 µM (active)
AC50 [7]: 5.26 µM (active)
Structure (SMILES): O=C(Nc1nc2c(s1)CCCC2)c1ccc(N2C(=O)CCC2=O)cc1

Structure (SMILES): CN(N=O)c1ccc(CC2CCc3ccccc32)cc1 (centres undefined)
IC50 (Protein skinhead-1): 58.5 µM (inactive)
AC50 (HeLa): 79.8 µM (active)

Structure (SMILES): C[C@@H](CN1CCC2(CC1)C(=O)NCN2c1ccc(F)c(F)c1)NC(=O)c1ccc(Cl)cc1
IC50 (Phospholipase D1): 0.031 µM (active)
IC50 (Phospholipase D2): 0.125 µM (active)

AC50 [6]: 2.04 µM (active)
Structure (SMILES): c1cc(-c2ccc3c(c2)OCO3)nc(Nc2ccc3c(c2)OCO3)n1

Structure (SMILES): O=C(NCCN1CCC(n2nnc3ccccc32)CC1)c1ccc2ccccc2c1
IC50 (Phospholipase D1): 2.7 µM (active)
IC50 (Phospholipase D2): 1.75 µM (active)
